# How the values were obtained:
# [1] = molecular target: T1, human TLR7 (Homo sapiens, UniProt Q9NYK1); assay: HEK293-Blue-hTLR-7 cells assay (SEAP reporter, R848 stimulation); type: cell-based; conditions: HEK293-Blue-hTLR7 cells, R848 ligand, 20 hrs incubation; read-out: HEK/hTLR7 IC50
# T1 sequence (Q9NYK1 27-1049): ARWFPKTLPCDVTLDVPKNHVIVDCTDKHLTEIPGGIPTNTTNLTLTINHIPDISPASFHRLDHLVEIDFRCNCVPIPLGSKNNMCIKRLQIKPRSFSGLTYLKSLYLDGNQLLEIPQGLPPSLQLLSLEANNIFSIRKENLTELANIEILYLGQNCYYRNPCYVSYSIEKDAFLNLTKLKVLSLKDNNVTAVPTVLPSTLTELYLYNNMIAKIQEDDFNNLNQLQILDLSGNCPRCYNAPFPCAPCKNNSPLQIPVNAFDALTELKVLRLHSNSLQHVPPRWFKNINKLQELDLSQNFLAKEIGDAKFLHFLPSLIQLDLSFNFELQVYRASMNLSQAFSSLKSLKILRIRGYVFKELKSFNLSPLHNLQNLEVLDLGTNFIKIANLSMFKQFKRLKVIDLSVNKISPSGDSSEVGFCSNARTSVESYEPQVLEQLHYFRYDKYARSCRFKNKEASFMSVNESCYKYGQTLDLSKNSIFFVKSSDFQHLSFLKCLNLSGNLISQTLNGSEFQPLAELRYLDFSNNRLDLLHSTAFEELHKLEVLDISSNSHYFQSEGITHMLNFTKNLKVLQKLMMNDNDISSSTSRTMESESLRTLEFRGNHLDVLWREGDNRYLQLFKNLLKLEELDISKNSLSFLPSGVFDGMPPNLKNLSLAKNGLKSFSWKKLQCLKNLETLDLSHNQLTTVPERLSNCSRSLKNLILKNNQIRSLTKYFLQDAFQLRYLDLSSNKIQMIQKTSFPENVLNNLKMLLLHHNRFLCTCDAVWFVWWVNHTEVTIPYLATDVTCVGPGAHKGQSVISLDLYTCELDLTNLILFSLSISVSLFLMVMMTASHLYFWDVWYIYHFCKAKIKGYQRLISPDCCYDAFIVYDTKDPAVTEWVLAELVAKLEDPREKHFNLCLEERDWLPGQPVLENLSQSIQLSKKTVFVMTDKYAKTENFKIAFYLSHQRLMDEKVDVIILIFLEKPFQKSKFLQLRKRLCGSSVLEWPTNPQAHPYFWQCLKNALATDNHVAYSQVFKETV
# Procedure: The following tests were carried out in order to determine the activity of the compounds of formula (I) in HEK293-Blue-hTLR-7/8/9 cells assay.
# A stable HEK293-Blue-hTLR-7 cell line was purchased from InvivoGen (Cat.#: hkb-htlr7, San Diego, California, USA). These cells were originally designed for studying the stimulation of human TLR7 by monitoring the activation of NF-κB. A SEAP (secreted embryonic alkaline phosphatase) reporter gene was placed under the control of the IFN-β minimal promoter fused to five NF-κB and AP-1-binding sites. The SEAP was induced by activating NF-κB and AP-1 via stimulating HEK-Blue hTLR7 cells with TLR7 ligands. Therefore the reporter expression was declined by TLR7 antagonist under the stimulation of a ligand, such as R848 (Resiquimod), for incubation of 20 hrs. The cell culture supernatant SEAP reporter activity was determined using QUANTI-Blue™ kit (Cat.#: rep-qb1, Invivogen, San Diego, Ca, USA) at a wavelength of 640 nm, a detection medium that turns purple or blue in the presence of alkaline phosphatase.
# HEK293-Blue-hTLR7 cells were incubated at a density of 250,000˜450,000 cells/mL in a volume of 170 μL in a 96-well plate in Dulbecco's Modified Eagle's medium (DMEM) containing 4.5 g/L glucose, 50 U/mL penicillin, […], […], 2 mM L-glutamine, 10% (v/v) heat-inactivated fetal bovine serum with addition of 20 μL test compound in a serial dilution in the presence of final DMSO at 1% and 10 μL of 20 uM R848 in above DMEM, perform incubation under 37° C. in a CO2 incubator for 20 hrs. Then 20 μL of the supernatant from each well was incubated with […] Quanti-blue substrate solution at 37° C. for 2 hrs and the absorbance was read at 620-655 nm using a spectrophotometer. The signalling pathway that TLR7 activation leads to downstream NF-κB activation has been widely accepted, and therefore similar reporter assay was modified for evaluating TLR7 antagonist.
# [2] = Human microsomal stability assay; type: in vitro ADME; conditions: human liver microsomes 0.5 mg/mL, 1 μM test compound, 37° C., pH 7.4
# Procedure: Human liver microsomes (Cat.NO.: 452117, Corning, USA) were preincubated with test compound for 10 minutes at 37° C. in 100 mM potassium phosphate buffer, pH 7.4. The reactions were initiated by adding NADPH regenerating system. The final incubation mixtures contained 1 μM test compound, 0.5 mg/mL liver microsomal protein, 1 mM MgCl2, 1 mM NADP, 1 unit/mL isocitric dehydrogenase and 6 mM isocitric acid in 100 mM potassium phosphate buffer, pH 7.4. After incubation times of 0, 3, 6, 9, 15 and 30 minutes at 37° C., 300 μL of cold ACN (including internal standard) was added to 100 μL incubation mixture to terminate the reaction. Following precipitation and centrifugation, 100 uL supernatant will be taken out and added 300 uL water. The amount of compound remaining in the samples was determined by LC-MS/MS. Controls of no NADPH regenerating system at zero and 30 minutes were also prepared and analyzed.
IC50 [1],Clearance of Human microsome [2],SMILES
50 nM,,"C[C@@H]1CN(c2ccc(C#N)c3ncccc23)C[C@H](C)N1Cc1ccc(N2CCN(C(=O)CN(C)C)CC2)cn1 [Example 11, 5-[(3S,5R)-4-[[5-[4-[2-(Dimethylamino)acetyl]piperazin-1-yl]-2-pyridyl]methyl]-3,5-dimethyl-piperazin-1-yl]quinoline-8-carbonitrile]"
30 nM,,"C[C@@H]1CN(c2ccc(C#N)c3ncccc23)C[C@H](C)N1Cc1ccc(N2CCN(C)CC2)cn1 [Example 7, 5-[(3S,5R)-3,5-dimethyl-4-[[5-(4-methylpiperazin-1-yl)-2-pyridyl]methyl]piperazin-1-yl]quinoline-8-carbonitrile]"
35 nM,9.4 mL/min/kg,"C[C@@H]1CN(c2ccc(C#N)c3ncccc23)C[C@H](C)N1CC(=O)N1Cc2ccc(N3CCNCC3)cc2C1 [Example 16, 5-[(3R,5S)-3,5-Dimethyl-4-[2-oxo-2-(5-piperazin-1-ylisoindolin-2-yl)ethyl]piperazin-1-yl]quinoline-8-carbonitrile]"
88 nM,6.9 mL/min/kg,"CC1CN(c2ccc(C#N)c3ncccc23)CCN1CC(=O)Nc1ccc(N2CCNCC2)cc1 (centres unmarked) [Example 17, 2-[4-(8-Cyano-5-quinolyl)-2-methyl-piperazin-1-yl]-N-(4-piperazin-1-ylpheny)acetamide]"
12 nM,,"C[C@@H]1CN(c2ccc(C#N)c3ncccc23)C[C@H](C)N1Cc1ccc(N2CCNCC2)cn1 [Example 5, 5-[(3S,5R)-3,5-Dimethyl-4-[(5-piperazin-1-yl-2-pyridyl)methyl]piperazin-1-yl]quinoline-8-carbonitrile]"
87 nM,8.0 mL/min/kg,C[C@@H]1CN(c2ccc(C#N)c3ncccc23)C[C@@H](C)N1Cc1ccc(N2CCNCC2)cc1 [Example 2]
57 nM,6.7 mL/min/kg,"CC1CN(c2ccc(C#N)c3ncccc23)CCN1CC(=O)N1CCC(C2CCN(C)CC2)CC1 (centres unmarked) [Example 19, 5-[3-methyl-4-[2-[4-(1-methyl-4-piperidyl)-1-piperidyl]-2-oxo-ethyl]piperazin-1-yl]quinoline-8-carbonitrile]"
53 nM,11.2 mL/min/kg,"C[C@@H]1CN(c2ccc(C#N)c3ncccc23)C[C@H](C)N1Cc1ccc(N2CCNCC2)cc1 [Example 1, 5-[(3R,5S)-3,5-Dimethyl-4-[(4-piperazin-1-ylphenyl)methyl]piperazin-1-yl]quinoline-8-carbonitrile]"
67 nM,,"C[C@@H]1CN(c2ccc(C#N)c3ncccc23)C[C@H](C)N1CC(=O)N1CCc2ccc(N3CCNCC3)cc2C1 [Example 15, 5-[(3R,5S)-3,5-dimethyl-4-[2-pxp-2-(7-piperazin-1-yl-3,4-dihydro-1H-isoquinolin-2-yl)ethyl]piperazin-1-yl]quinoline-8-carbonitrile]"
67 nM,10.5 mL/min/kg,"C[C@@H]1CN(c2ccc(C#N)c3ncccc23)C[C@H](C)N1Cc1ncc(N2CCN(C(=O)CN(C)C)CC2)cn1 [Example 6, 5-[(3S,5R)-4-[[5-[4-[2-(Dimethylamino)acetyl]piperazin-1-yl]pyrimidin-2-yl]methyl]-3,5-dimethyl-piperazin-1-yl]quinoline-8-carbonitrile]"
78 nM,12.4 mL/min/kg,"C[C@@H]1CN(c2ccc(C#N)c3ncccc23)C[C@H](C)N1Cc1ccc(N2CC3CNCC(C2)O3)cn1 [Example 8, 5-[(3S,5R)-3,5-Dimethyl-4-[[5-(9-oxa-3,7-diazabicyclo[3.3.1]nonan-3-yl)-2-pyridyl]methyl]piperazin-1-yl]quinoline-8-carbonitrile]"
56 nM,,"C[C@@H]1CN(c2ccc(C#N)c3ncccc23)C[C@H](C)N1CC(=O)N1CCc2nc(N3CCNCC3)ccc2C1 [Example 13, 5-[(3R,5S)-3,5-Dimethyl-4-[2-oxo-2-(2-piperazin-1-yl-7,8-dihydro-5H-1,6-naphthyridin-6-yl)ethyl]piperazin-1-yl]quinoline-8-carbonitrile]"
69 nM,,"C[C@@H]1CN(c2ccc(C#N)c3ncccc23)C[C@H](C)N1Cc1ccc(N2CCN(C(=O)C3CCCN3)CC2)cn1 (stereo partly drawn) [Example 10, 5-[(3R,5S)-3,5-Dimethyl-4-[[5-[4-(pyrrolidine-2-carbonyl)piperazin-1-yl]-2-pyridyl]methyl]piperazin-1-yl]quinoline-8-carbonitrile]"
16 nM,10.4 mL/min/kg,"C[C@@H]1CN(c2ccc(C#N)c3ncccc23)C[C@H](C)N1Cc1ncc(N2CCNCC2)cn1 [Example 4, 5-[(3S,5R)-3,5-Dimethyl-4-[(5-piperazin-1-ylpyrimidin-2-yl)methyl]piperazin-1-yl]quinoline-8-carbonitrile]"
51 nM,12.8 mL/min/kg,"C[C@@H]1CN(c2ccc(C#N)c3ncccc23)C[C@H](C)N1Cc1ccc(N[C@@H]2CNC[C@@H]2F)cn1 [Example 9, 5-[(3R,5S)-3,5-Dimethyl-4-[[5-[[(3R,4S)-4-fluoropyrrolidin-3-yl]amino]-2-pyridyl]methyl]piperazin-1-yl]quinoline-8-carbonitrile]"
87 nM,10.1 mL/min/kg,"C[C@@H]1CN(c2ccc(C#N)c3ncccc23)C[C@H](C)N1Cc1ccc(N2CCNCC2CO)cc1 (stereo partly drawn) [Example 12, 5-[(3R,5S)-4-[[4-[2-(Hydroxymethyl)piperazin-1-yl]phenyl]methyl]-3,5-dimethyl-piperazin-1-yl]quinoline-8-carbonitrile]"
19 nM,11.6 mL/min/kg,"C[C@@H]1CN(c2ccc(C#N)c3ncccc23)C[C@H](C)N1Cc1ccc(N2CCNCC2)nc1 [Example 3, 5-[(3R,5S)-3,5-Dimethyl-4-[(6-piperazin-1-yl-3-pyridyl)methyl]piperazin-1-yl]quinoline-8-carbonitrile]"
60 nM,6.3 mL/min/kg,"CC1CN(c2ccc(C#N)c3ncccc23)CCN1CC(=O)Nc1ccc2c(c1)CCNC2 (centres unmarked) [Example 18, 2-[4-(8-Cyano-5-quinolyl)-2-methyl-piperazin-1yl]-N-(1,2,3,4-tetrahydroisoquinolin-6-yl)acetamide]"
80 nM,12.9 mL/min/kg,"C[C@@H]1CN(c2ccc(C#N)c3ncccc23)C[C@H](C)N1CC(=O)N1CCc2cc(N3CCNCC3)ccc2C1 [Example 14, 5-[(3R,5S)-3,5-Dimethyl-4-[2-oxo-2-(6-piperazin-1-yl-3,4-dihyrdo-1H-isoquinolin-2-yl)ethyl]piperazin-1-yl]quinoline-8-carbonitrile]"

# — patent US11952363B2, “Piperazine compounds for the treatment of autoimmune disease” (Hoffmann-La Roche Inc., priority 2018, dated 2024)
